From paper PMC10139140, “Synthesis of Novel 2-(Cyclopentylamino)thiazol-4(5H)-one Derivatives with Potential Anticancer, Antioxidant, and 11β-HSD Inhibitory Activities” (International Journal of Molecular Sciences, 2023)
Blank lines part the entries; values can stand above or below the compound they belong to.

Experiments:
BJ cells = test: MTS metabolic activity assay, BJ cells; assay type: cell-based; details: Homo sapiens, 72 h, read-out: Cell metabolic activity (MTS), % of untreated control
Procedure: (§1) The BJ (CRL-2522), Caco-2 (HTB-37), PANC-1 (CRL-1469), U-118 MG (HTB-15), SK-MEL-30 (ACC 151), and MDA-MB-231 (HTB-26) cell lines were purchased from ATCC (Manassas, VA, USA) or DSMZ (Braunschweig, GERMANY). Cells were cultured in accordance with manufacturers' recommendations in a DMEM, MEM, or RPMI-1640 (Sigma, Saint Louis, MO, USA; Gibco, Waltham, MA, USA), supplemented with 10% FBS, except for Caco-2 (20%) (Thermo Fisher Scientific, Waltham, MA, USA) and 1% antibiotic mix solution (penicillin, streptomycin; Thermo Fisher Scientific, Waltham, MA, USA) in a humidified atmosphere with 5% CO2 at 37 °C. All cell lines were cultured in T75 cell culture flasks or cell culture dishes to reach 80–90% confluency and seeded at a standard density of 5 × 10^3 cells/0.32 cm^2, except for BJ cells at 2 × 10^3 cells/0.32 cm^2.
(§2) The MTS ((MTS: 3-(4,5-dimethylthiazol-2-yl)-5-(3-carboxymethoxyphenyl)-2-(4-sulfophenyl)-2H-tetrazolium)) assay was performed following previously reported method. Briefly, cells were seeded at a standard density into 96-well flat-bottom plates and incubated for 24 h, followed by the treatment. The various concentrations of compounds were prepared and treated for the next 72 h. MTS solution was added for 3h and incubated at standard conditions, protected from light. Finally, the absorbance was read at […] and 620 nm wavelengths using a Synergy H1 microplate reader (BioTek, Santa Clara, CA, USA). The results are presented as %, while untreated control cells were considered 100%.

11β-HSD1 = target: T1, 11β-HSD1 (Homo sapiens, UniProt P28845); test: Inhibition of 11β-HSD1 (cortisone to cortisol, human liver microsomes, cortisol ELISA); assay type: biochemical; details: for inhibition at 10 µM: 2.5 h, 37 °C
T1 construct: Human liver microsomes were used as a source of 11β-HSD1 enzyme; tissue XenoTech Lot No. 1410013; host or cells: pooled human liver microsomes, mixed gender
T1 sequence (P28845 whole entry): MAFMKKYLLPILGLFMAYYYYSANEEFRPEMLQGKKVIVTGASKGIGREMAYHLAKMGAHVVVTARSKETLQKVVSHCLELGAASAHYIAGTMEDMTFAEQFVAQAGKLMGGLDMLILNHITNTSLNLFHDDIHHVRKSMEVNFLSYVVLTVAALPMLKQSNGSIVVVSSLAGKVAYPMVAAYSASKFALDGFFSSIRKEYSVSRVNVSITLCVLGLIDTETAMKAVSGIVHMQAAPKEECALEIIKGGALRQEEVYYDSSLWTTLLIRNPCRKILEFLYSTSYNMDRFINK
Procedure: The resulting solution with a final volume of 100 µL was incubated for 2.5 h at 37 °C. To stop the reaction, 10 µL of a 100 µM solution of 18β-glycyrrhetinic acid in PBS was added. The level of cortisol obtained in the reaction was measured by commercially available ELISA kit.
As a control, analogous tests without the addition of inhibitors were used. Half the inhibitory concentration (causing 50% reduction of cortisol or cortisone) was read from the chart.

[1] = tested on: human breast carcinoma (MDA-MB-231); test: MTS metabolic activity assay, MDA-MB-231 cells; assay type: cell-based; details: Homo sapiens, 72 h, read-out: Cell metabolic activity (MTS), % of untreated control; for viability at 10 µM: MDA-MB-231, 10 µM; for viability at 20 µM: MDA-MB-231, 20 µM; for viability at 50 µM: MDA-MB-231, 50 µM; for viability at 100 µM: MDA-MB-231, 100 µM; for viability at 200 µM: MDA-MB-231, 200 µM; for viability at 300 µM: MDA-MB-231, 300 µM; for viability at 500 µM: MDA-MB-231, 500 µM
Procedure: as §1, §2

[2] = tested on: human pancreatic carcinoma (PANC-1); test: MTS metabolic activity assay, PANC-1 cells; assay type: cell-based; details: Homo sapiens, 72 h, read-out: Cell metabolic activity (MTS), % of untreated control; for viability at 10 µM: PANC-1, 10 µM; for viability at 20 µM: PANC-1, 20 µM; for viability at 50 µM: PANC-1, 50 µM; for viability at 100 µM: PANC-1, 100 µM; for viability at 200 µM: PANC-1, 200 µM; for viability at 300 µM: PANC-1, 300 µM; for viability at 500 µM: PANC-1, 500 µM
Procedure: as §1, §2

[3] = tested on: skin melanoma (SK-MEL-30); test: MTS metabolic activity assay, SK-MEL-30 cells; assay type: cell-based; details: Homo sapiens, 72 h, read-out: Cell metabolic activity (MTS), % of untreated control; for viability at 10 µM: SK-MEL-30, 10 µM; for viability at 20 µM: SK-MEL-30, 20 µM; for viability at 50 µM: SK-MEL-30, 50 µM; for viability at 100 µM: SK-MEL-30, 100 µM; for viability at 200 µM: SK-MEL-30, 200 µM; for viability at 300 µM: SK-MEL-30, 300 µM; for viability at 500 µM: SK-MEL-30, 500 µM
Procedure: as §1, §2

glioma (U-118 MG) = test: MTS metabolic activity assay, U-118 MG cells; assay type: cell-based; details: Homo sapiens, U-118-MG, U118-MG, 72 h, read-out: Cell metabolic activity (MTS), % of untreated control
Procedure: as §1, §2

11β-HSD2 = target: T2, 11β-HSD2 (Homo sapiens, UniProt P80365); test: Inhibition of 11β-HSD2 (cortisol to cortisone, human microsomes, cortisol ELISA); assay type: biochemical; details: 2.5 h, 37 °C
T2 construct: Human liver microsomes were used as a source of 11β-HSD2 enzyme; tissue XenoTech Lot No. 1710160; host or cells: human kidney microsomes, mixed gender (method text says human liver microsomes)
T2 sequence (P80365 1-405): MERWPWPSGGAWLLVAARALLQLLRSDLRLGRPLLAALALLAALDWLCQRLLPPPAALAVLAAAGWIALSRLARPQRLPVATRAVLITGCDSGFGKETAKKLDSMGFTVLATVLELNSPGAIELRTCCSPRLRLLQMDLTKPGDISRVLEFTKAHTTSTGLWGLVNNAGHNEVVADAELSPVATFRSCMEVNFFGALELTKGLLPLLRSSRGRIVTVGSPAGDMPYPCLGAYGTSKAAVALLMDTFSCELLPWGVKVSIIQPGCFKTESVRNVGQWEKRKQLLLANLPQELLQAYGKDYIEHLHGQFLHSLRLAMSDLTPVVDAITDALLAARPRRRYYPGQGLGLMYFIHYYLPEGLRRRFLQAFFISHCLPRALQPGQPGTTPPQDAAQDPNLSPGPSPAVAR
Procedure: The resulting solution with a final volume of 100 µL was incubated for 2.5 h at 37 °C. […] The level of unreacted cortisol was measured by a commercially available ELISA kit.

[4] = tested on: human colon carcinoma (Caco-2); test: MTS metabolic activity assay, Caco-2 cells; assay type: cell-based; details: Homo sapiens, 72 h, read-out: Cell metabolic activity (MTS), % of untreated control; for viability at 10 µM: Caco-2, 10 µM; for viability at 20 µM: Caco-2, 20 µM; for viability at 50 µM: Caco-2, 50 µM; for viability at 100 µM: Caco-2, 100 µM; for viability at 200 µM: Caco-2, 200 µM; for viability at 300 µM: Caco-2, 300 µM; for viability at 500 µM: Caco-2, 500 µM
Procedure: as §1, §2

IC50 (11β-HSD1): > 10 µM | inhibition at 10 µM (11β-HSD1): 21.3 ± 3.29% | inhibition at 10 µM (11β-HSD2): 39.7 ± 0.07%
SMILES: CCC1SC(NC2CCCC2)=NC1=O (stereo not drawn) [Compound 3b, 2-(cyclopentylamino)-5-ethylthiazol-4(5H)-one]
viability at 10 µM (BJ cells): 97.9% | viability at 20 µM (BJ cells): 98.5% | viability at 50 µM (BJ cells): 102% | viability at 100 µM (BJ cells): 108% | viability at 200 µM (BJ cells): 110% | viability at 300 µM (BJ cells): 112% | viability at 500 µM (BJ cells): 111% | viability at 10 µM [1]: 97.5% | viability at 20 µM [1]: 97.8% | viability at 50 µM [1]: 94.5% | viability at 100 µM [1]: 95.3% | viability at 200 µM [1]: 86.5% | viability at 300 µM [1]: 75.3% | viability at 500 µM [1]: 57.4% | viability at 10 µM [2]: 103% | viability at 20 µM [2]: 102% | viability at 50 µM [2]: 107% | viability at 100 µM [2]: 112% | viability at 200 µM [2]: 113% | viability at 300 µM [2]: 110% | viability at 500 µM [2]: 105% | viability at 10 µM [3]: 93.7% | viability at 20 µM [3]: 99% | viability at 50 µM [3]: 97.4% | viability at 100 µM [3]: 105% | viability at 200 µM [3]: 101% | viability at 300 µM [3]: 98.4% | viability at 500 µM [3]: 93.8% | viability at 10 µM (glioma (U-118 MG)): 110% | viability at 20 µM (glioma (U-118 MG)): 107% | viability at 50 µM (glioma (U-118 MG)): 111% | viability at 100 µM (glioma (U-118 MG)): 113% | viability at 200 µM (glioma (U-118 MG)): 113% | viability at 300 µM (glioma (U-118 MG)): 112% | viability at 500 µM (glioma (U-118 MG)): 107% | viability at 10 µM [4]: 87.9% | viability at 20 µM [4]: 87.3% | viability at 50 µM [4]: 84.4% | viability at 100 µM [4]: 79.8% | viability at 200 µM [4]: 77% | viability at 300 µM [4]: 73.2% | viability at 500 µM [4]: 66.1%

IC50 (11β-HSD1): > 10 µM | inhibition at 10 µM (11β-HSD1): 10.9 ± 4.08% | inhibition at 10 µM (11β-HSD2): 40.3 ± 0.65%
SMILES: CC1SC(NC2CCCC2)=NC1=O (stereo not drawn) [Compound 3a, 2-(cyclopentylamino)-5-methylthiazol-4(5H)-one]
viability at 10 µM (BJ cells): 95.9% | viability at 20 µM (BJ cells): 98.4% | viability at 50 µM (BJ cells): 102% | viability at 100 µM (BJ cells): 112% | viability at 200 µM (BJ cells): 109% | viability at 300 µM (BJ cells): 109% | viability at 500 µM (BJ cells): 110% | viability at 10 µM [1]: 105% | viability at 20 µM [1]: 107% | viability at 50 µM [1]: 103% | viability at 100 µM [1]: 105% | viability at 200 µM [1]: 104% | viability at 300 µM [1]: 93.6% | viability at 500 µM [1]: 89.8% | viability at 10 µM [2]: 99.7% | viability at 20 µM [2]: 104% | viability at 50 µM [2]: 106% | viability at 100 µM [2]: 107% | viability at 200 µM [2]: 110% | viability at 300 µM [2]: 106% | viability at 500 µM [2]: 104% | viability at 10 µM [3]: 104% | viability at 20 µM [3]: 102% | viability at 50 µM [3]: 102% | viability at 100 µM [3]: 106% | viability at 200 µM [3]: 103% | viability at 300 µM [3]: 101% | viability at 500 µM [3]: 97.6% | viability at 10 µM (glioma (U-118 MG)): 111% | viability at 20 µM (glioma (U-118 MG)): 109% | viability at 50 µM (glioma (U-118 MG)): 113% | viability at 100 µM (glioma (U-118 MG)): 110% | viability at 200 µM (glioma (U-118 MG)): 110% | viability at 300 µM (glioma (U-118 MG)): 110% | viability at 500 µM (glioma (U-118 MG)): 105% | viability at 10 µM [4]: 86.2% | viability at 20 µM [4]: 92.8% | viability at 50 µM [4]: 82.6% | viability at 100 µM [4]: 81.6% | viability at 200 µM [4]: 76.9% | viability at 300 µM [4]: 75.5% | viability at 500 µM [4]: 66.8%
